“Also recorded” adds a separate entry of the source.
Columns and labels:
[1] = system: lymphocyte progenitors (LymP); assay: MLTA, LymP: concentration-response and QSP model fit; assay type: cell-based, human; details: Homo sapiens, Lymphocyte, 144 h
Procedure, shortened: (§1)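 Drug was added at time 0 to thawed human bone marrow CD34+ cells in SFEM II plus a cytokine cocktail. After 6 days at 37°C, subsets were counted by surface-marker flow with TruCount beads. Vehicle-normalized, donor-pooled data then fed an Emax model separating anti-proliferative from cell-killing effects.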

[2] = system: granulocyte progenitor (Gran-lin prog); assay: MLTA, GranP: concentration-response and QSP model fit; assay type: cell-based, human; details: Homo sapiens, 144 h
Procedure, shortened: (§2)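 Freeze-thawed primary human bone marrow CD34+ cells were cultured 6 days in SFEM II with a cytokine cocktail, drug added on day 0. Subsets were counted by 17-parameter flow cytometry with TruCount beads and normalized to vehicle wells. An Emax QSP model (Emax 0–2, L1 regularization) was fitted to these counts.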

[3] = system: human bone marrow-derived CD34+ cells differentiated into multiple hematopoietic lineages; assay: MLTA, overall effects across hematopoietic lineages; assay type: cell-based
Procedure, shortened: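 Thawed primary human bone marrow CD34+ cells grown in SFEM II with a multi-lineage cytokine cocktail, drug added day 0, 6 days at 37°C, 5% CO2. Subsets counted by 17-parameter flow cytometry with TruCount beads, normalized to six vehicle wells per donor (2–7 donors); Emax model fitted per cell type.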

[4] = system: granulocyte-macrophage progenitor (GMPs); assay: MLTA, GMPs: concentration-response and QSP model fit; assay type: cell-based, human; details: Homo sapiens, 144 h, 6 days, normalized to vehicle control, read-out: GMPs normalized cell count
Procedure, shortened: as §1

[5] = system: total viable cells (totalViableCells); assay: MLTA, total live cells concentration-response; assay type: cell-based; details: Homo sapiens, 144 h, 6 days, normalized to vehicle control, read-out: total_live normalized cell count
Procedure, shortened: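 Freeze-thawed primary human bone marrow CD34+ cells in SFEM II with cytokine cocktail, drug added day 0, 6 days at 37°C, 5% CO2. Live/dead counts by 17-parameter flow cytometry with DAPI exclusion, bead-normalized, volume-corrected to cells/mL. Normalized per donor to mean of six vehicle wells; 2–7 donors pooled.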

[6] = system: granulocytes (Gran-lin); assay: MLTA, Gran: concentration-response and QSP model fit; assay type: cell-based, human; details: Homo sapiens, 144 h
Procedure, shortened: as §2

[7] = system: neutrophils (neutrophil-lin); assay: MLTA, Neut: concentration-response and QSP model fit; assay type: cell-based, human; details: Homo sapiens, Neutrophil, 144 h
Procedure, shortened: as §1

[8] = system: MK cells (MK-lin); assay: MLTA, MK: concentration-response and QSP model fit; assay type: cell-based, human; details: Homo sapiens, 144 h
Procedure, shortened: as §1

## O=C1CCC(N2C(=O)c3ccccc3C2=O)C(=O)N1 (centres unmarked) [thalidomide]
[1]; dose 0.2 nM, 6 days, normalized to vehicle control, read-out: LymP normalized cell count
  activity at 0.0002 µM: 109%
[1]; dose 1 nM, 6 days, normalized to vehicle control, read-out: LymP normalized cell count
  activity at 0.001 µM: 105%
[1]; dose 5 nM, 6 days, normalized to vehicle control, read-out: LymP normalized cell count
  activity at 0.005 µM: 123%
[1]; dose 25 nM, 6 days, normalized to vehicle control, read-out: LymP normalized cell count
  activity at 0.025 µM: 126%
[1]; dose 100 nM, 6 days, normalized to vehicle control, read-out: LymP normalized cell count
  activity at 0.1 µM: 94.6%
[1]; dose 500 nM, 6 days, normalized to vehicle control, read-out: LymP normalized cell count
  activity at 0.5 µM: 76.6%
[1]; dose 2500 nM, 6 days, normalized to vehicle control, read-out: LymP normalized cell count
  activity at 2.5 µM: 139%
[1]; parameter from QSP model fitting, read-out: Emax_drug_LymP
  Emax: 0.0064%
[2]; dose 0.2 nM, 6 days, normalized to vehicle control, read-out: GranPs normalized cell count
  activity at 0.0002 µM: 80.9%
[2]; dose 1 nM, 6 days, normalized to vehicle control, read-out: GranPs normalized cell count
  activity at 0.001 µM: 97.2%
[2]; dose 5 nM, 6 days, normalized to vehicle control, read-out: GranPs normalized cell count
  activity at 0.005 µM: 114%
[2]; dose 25 nM, 6 days, normalized to vehicle control, read-out: GranPs normalized cell count
  activity at 0.025 µM: 130%
[2]; dose 100 nM, 6 days, normalized to vehicle control, read-out: GranPs normalized cell count
  activity at 0.1 µM: 99%
[2]; dose 500 nM, 6 days, normalized to vehicle control, read-out: GranPs normalized cell count
  activity at 0.5 µM: 94.5%
[2]; dose 2500 nM, 6 days, normalized to vehicle control, read-out: GranPs normalized cell count
  activity at 2.5 µM: 109%
[2]; parameter from QSP model fitting, read-out: Emax_drug_GranP
  Emax: 0.0121%
[3]; 0.2-2500 nM, 6 days, relative to vehicle control
  effect on hematopoietic cell numbers across cell types: least effect on hematopoietic cell types across doses; also recorded: did not drastically decrease cell types
[3]; QSP model fit, EmaxT > 1.0 = cell-killing
  EmaxT effects across cell types (overall statement): ≤ 0.1
[4]; dose 0.2 nM
  activity at 0.0002 µM: 92.4%
[4]; dose 1 nM
  activity at 0.001 µM: 107%
[4]; dose 5 nM
  activity at 0.005 µM: 100%
[4]; dose 25 nM
  activity at 0.025 µM: 112%
[4]; dose 100 nM
  activity at 0.1 µM: 97%
[4]; dose 500 nM
  activity at 0.5 µM: 104%
[4]; dose 2500 nM
  activity at 2.5 µM: 99%
[5]; dose 0.2 nM
  viability at 0.0002 µM: 90.8%
[5]; dose 1 nM
  viability at 0.001 µM: 99.8%
[5]; dose 5 nM
  viability at 0.005 µM: 108%
[5]; dose 25 nM
  viability at 0.025 µM: 116%
[5]; dose 100 nM
  viability at 0.1 µM: 93.1%
[5]; dose 500 nM
  viability at 0.5 µM: 91.7%
[5]; dose 2500 nM
  viability at 2.5 µM: 104%
[6]; dose 0.2 nM, 6 days, normalized to vehicle control, read-out: Gran normalized cell count
  activity at 0.0002 µM: 85%
[6]; dose 1 nM, 6 days, normalized to vehicle control, read-out: Gran normalized cell count
  activity at 0.001 µM: 100%
[6]; dose 5 nM, 6 days, normalized to vehicle control, read-out: Gran normalized cell count
  activity at 0.005 µM: 110%
[6]; dose 25 nM, 6 days, normalized to vehicle control, read-out: Gran normalized cell count
  activity at 0.025 µM: 126%
[6]; dose 100 nM, 6 days, normalized to vehicle control, read-out: Gran normalized cell count
  activity at 0.1 µM: 94.9%
[6]; dose 500 nM, 6 days, normalized to vehicle control, read-out: Gran normalized cell count
  activity at 0.5 µM: 92.7%
[6]; dose 2500 nM, 6 days, normalized to vehicle control, read-out: Gran normalized cell count
  activity at 2.5 µM: 102%
[6]; parameter from QSP model fitting, read-out: Emax_drug_Gran
  Emax: 0.01%
[7]; dose 0.2 nM, 6 days, normalized to vehicle control, read-out: Neut normalized cell count
  activity at 0.0002 µM: 99.5%
[7]; dose 1 nM, 6 days, normalized to vehicle control, read-out: Neut normalized cell count
  activity at 0.001 µM: 79.1%
[7]; dose 5 nM, 6 days, normalized to vehicle control, read-out: Neut normalized cell count
  activity at 0.005 µM: 88.2%
[7]; dose 25 nM, 6 days, normalized to vehicle control, read-out: Neut normalized cell count
  activity at 0.025 µM: 94.5%
[7]; dose 100 nM, 6 days, normalized to vehicle control, read-out: Neut normalized cell count
  activity at 0.1 µM: 62.4%
[7]; dose 500 nM, 6 days, normalized to vehicle control, read-out: Neut normalized cell count
  activity at 0.5 µM: 69%
[7]; dose 2500 nM, 6 days, normalized to vehicle control, read-out: Neut normalized cell count
  activity at 2.5 µM: 96.9%
[7]; parameter from QSP model fitting, read-out: Emax_drug_Neut
  Emax: 1.13%
[8]; dose 0.2 nM, 6 days, normalized to vehicle control, read-out: MK normalized cell count
  activity at 0.0002 µM: 97.8%
[8]; dose 1 nM, 6 days, normalized to vehicle control, read-out: MK normalized cell count
  activity at 0.001 µM: 103%
[8]; dose 5 nM, 6 days, normalized to vehicle control, read-out: MK normalized cell count
  activity at 0.005 µM: 118%
[8]; dose 25 nM, 6 days, normalized to vehicle control, read-out: MK normalized cell count
  activity at 0.025 µM: 114%
[8]; dose 100 nM, 6 days, normalized to vehicle control, read-out: MK normalized cell count
  activity at 0.1 µM: 101%
[8]; dose 500 nM, 6 days, normalized to vehicle control, read-out: MK normalized cell count
  activity at 0.5 µM: 88.1%
[8]; dose 2500 nM, 6 days, normalized to vehicle control, read-out: MK normalized cell count
  activity at 2.5 µM: 105%
[8]; parameter from QSP model fitting, read-out: Emax_drug_MK
  Emax: 0.00388%
